According to patent US10112937B2, “P2X7 modulators and methods of use” (Janssen Pharmaceutica NV, priority 2013, dated 2018):

Assays:
human P2X7 [1] = molecular target: T1, human P2X7 (Homo sapiens (Human), UniProt Q99572); assay: P2X7 antagonism in human PBMCs (IL-1β release after LPS + Bz-ATP, ELISA); format: cell-based; details: human PBMCs
Experimental: P2X7 Antagonism in Human Peripheral Blood Mononuclear Cells (PBMCs) and Human Whole Blood.
Human blood was collected using a blood donor program. PBMCs were isolated from blood using a Ficoll density gradient technique. Briefly, blood was laid on Ficoll solution and centrifuged at RT for 20 minutes at 2000 rpm. The buffy layer (between red blood cells and plasma) was carefully collected by aspiration, washed with PBS and centrifuged again at 1500 rpm for 15 minutes. The resulting cell pellet was washed and plated on 96 well-plates for experiments. For the Human Whole Blood experiments, 150 μl of human blood was platted on 96 well-plates. Lipopolysaccharide (LPS) (30 ng/ml) was added to each well and incubated for 1 hour. Test compounds were then added and incubated for 30 minutes. The P2X7 agonist, 2′(3′)-O-(4-benzoylbenzoyl) adenosine 5′ triphosphate (Bz-ATP) was then added at a final concentration of 0.5 mM (PBMC) or 1 mM (blood). Cells were incubated for an additional 1.5 hours. At that point, supernatant was collected and stored for IL-1β assay using manufacturer's protocol for enzyme-linked immunosorbent assay (ELISA). Data was expressed as percent control, where control is defined as the difference in IL-1β release in LPS+Bz-ATP samples and LPS only samples. Data was plotted as response (% control) versus concentration to generate IC50 values. […] Data are analyzed and graphed on Graphpad Prism 5. For analysis, each concentration point is averaged from triplicate values and the averaged values are plotted on Graphpad Prism.

human P2X7 [2] = molecular target: T1, human P2X7; assay: Radioligand binding ([3H]A-804598), human P2X7-1321N1 cell membranes
Experimental: human or rat P2X7-1321N1 cells were collected and frozen @−80° C. On the day of the experiment, cell membrane preparations were made according to standard published methods. […] The assay was terminated by filtration (GF/B filters pre-soaked with 0.3% PEI) and washed with washing buffer (Tris-HCl 50 mM). The IC50 generated in the binding assay was corrected for tracer concentration and affinity of the tracer to derive at the affinity (Ki) of the test compounds. […] For analysis, each concentration point is averaged from triplicate values and the averaged values are plotted on Graphpad Prism.

rat P2X7 = rat P2X7 (Rattus norvegicus (Rat), UniProt Q64663); assay: Ca2+ flux (FLIPR) in 1321N1 cells expressing recombinant rat P2X7; format: cell-based;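 also: Calcium-4 dye fluorescence change read 180 s after agonist addition, with cells preincubated 30 min with compound and dye in 96-well plates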
Experimental: (§1) P2X7 Antagonism in Recombinant Human P2X7 Cells or Recombinant Rat P2X7 Cells: (a) Ca^2+ Flux and (b) Radioligand Binding
(§2) 1321N1 cells expressing the recombinant human or rat P2X7 channel was cultured in HyQ DME/(HyClone/Dulbecco's Modified Eagle Medium) high glucose supplemented with 10% Fetal Bovine Serum (FBS) and appropriate selection marker. Cells were seeded at a density of 25000 cells/well (96-well clear bottom black walled plates) in 100 μl volume/well. On the day of the experiment, cell plates were washed with assay buffer, containing (in mM): 130 NaCl, 2 KCl, 1 CaCl2, 1 MgCl2, 10 HEPES, 5 glucose; pH 7.40 and 300 mOs. After the wash, cells were loaded with the Calcium-4 dye (Molecular Device) and incubated in the dark for 60 minutes. Test compounds were prepared at 250× the test concentration in neat DMSO. Intermediate 96-well compound plates were prepared by transferring 1.2 μL of the compound into 300 μL of assay buffer. A further 3× dilution occurred when transferring 50 μL/well of the compound plate to 100 μL/well in the cell plate. Cells were incubated with test compounds and dye for 30 minutes. […] The fluorescence change was measured 180 seconds after adding the agonist.

human P2X7 [3] = molecular target: T1, human P2X7; assay: Ca2+ flux (FLIPR) in 1321N1 cells expressing recombinant human P2X7; format: cell-based;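 also: cells loaded with Calcium-4 dye, preincubated with test compound for 30 min, fluorescence change read 180 s after agonist addition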
Experimental: as §1, §2

[4] = human P2X7-1321N1 membranes, tritiated A-804598
[5] = 1321N1 cells, recombinant rat P2X7, 250 μM BzATP
[6] = 1321N1 cells, recombinant human P2X7, 250 μM BzATP
[7] = 10 μM test compound, LPS + Bz-ATP
[8] = Ca2+ flux, 250 μM BzATP, rat P2X7 1321N1 cells
[9] = Ca2+ flux, 250 μM BzATP, human P2X7 1321N1 cells
[10] = [3H]A-804598, human P2X7-1321N1 membranes

rat P2X7, sequence (Q64663 whole entry): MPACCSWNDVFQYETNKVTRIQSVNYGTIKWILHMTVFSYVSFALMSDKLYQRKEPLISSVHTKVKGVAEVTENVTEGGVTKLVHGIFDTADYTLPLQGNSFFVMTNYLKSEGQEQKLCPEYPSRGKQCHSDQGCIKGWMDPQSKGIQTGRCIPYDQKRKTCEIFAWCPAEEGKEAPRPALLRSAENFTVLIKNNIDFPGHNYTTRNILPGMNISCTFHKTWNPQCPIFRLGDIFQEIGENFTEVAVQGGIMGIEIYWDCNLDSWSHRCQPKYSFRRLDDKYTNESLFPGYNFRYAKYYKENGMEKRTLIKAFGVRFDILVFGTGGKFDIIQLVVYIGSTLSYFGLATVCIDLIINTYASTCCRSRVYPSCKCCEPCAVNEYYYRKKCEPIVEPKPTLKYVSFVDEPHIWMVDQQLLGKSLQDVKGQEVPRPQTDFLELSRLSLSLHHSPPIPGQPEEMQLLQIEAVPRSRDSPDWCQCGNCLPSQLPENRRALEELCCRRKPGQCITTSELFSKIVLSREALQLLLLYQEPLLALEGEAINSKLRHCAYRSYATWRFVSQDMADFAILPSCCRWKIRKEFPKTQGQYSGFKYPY
T1 sequence (Q99572 whole entry): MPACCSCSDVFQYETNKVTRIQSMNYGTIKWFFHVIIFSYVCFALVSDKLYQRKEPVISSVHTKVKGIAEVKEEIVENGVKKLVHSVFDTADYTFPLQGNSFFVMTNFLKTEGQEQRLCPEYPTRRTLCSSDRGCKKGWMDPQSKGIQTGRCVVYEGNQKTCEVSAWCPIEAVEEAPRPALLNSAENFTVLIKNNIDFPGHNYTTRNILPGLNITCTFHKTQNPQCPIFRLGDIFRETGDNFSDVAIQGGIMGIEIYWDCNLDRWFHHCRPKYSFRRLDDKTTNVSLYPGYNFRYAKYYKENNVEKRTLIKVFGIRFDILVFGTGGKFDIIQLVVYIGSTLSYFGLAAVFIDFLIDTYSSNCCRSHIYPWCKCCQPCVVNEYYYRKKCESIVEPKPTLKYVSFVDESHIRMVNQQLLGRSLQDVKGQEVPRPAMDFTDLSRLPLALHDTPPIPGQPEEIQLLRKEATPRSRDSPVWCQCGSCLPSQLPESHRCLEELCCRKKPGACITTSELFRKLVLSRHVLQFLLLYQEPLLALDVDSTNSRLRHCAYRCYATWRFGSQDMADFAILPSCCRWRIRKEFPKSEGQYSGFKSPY

Row | PBMC 10 μM (% control) (human P2X7 [1]; test compound 10 μM) | Ki (human P2X7 [2]; [4]) [nM] | IC50 (rat P2X7; [5]) [nM] | IC50 (human P2X7 [3]; [6]) [nM] | PBMC 10 μM (% control) (human P2X7 [1]; [7]) | IC50 (rat P2X7; [8]) [nM] | IC50 (human P2X7 [3]; [9]) [nM] | Ki (human P2X7 [2]; [10]) [nM] | Structure (SMILES)
1 | −2.3 | 10 | 2.2 | 6.5 | – | – | – | – | Cc1c(C(=O)N2Cc3nnn(-c4ccn[nH]4)c3C[C@H]2C)cccc1C(F)(F)F (single isomer, unassigned) [Example 346, (R*)-(6-methyl-1-(1H-pyrazol-3-yl)-6,7-dihydro-1H-[1,2,3]triazolo[4,5-c]pyridin-5(4H)-yl)(2-methyl-3-(trifluoromethyl)phenyl)methanone]
2 | −0.6 | 7.9 | – | – | – | – | – | – | Cc1c(C(=O)N2Cc3nnn(-c4cc[nH]n4)c3CC2C)cccc1C(F)(F)F (centres unmarked) [Example 154, (6-methyl-1-(1H-pyrazol-3-yl)-6,7-dihydro-1H-[1,2,3]triazolo[4,5-c]pyridin-5(4H)-yl)(2-methyl-3-(trifluoromethyl)phenyl)methanone]
3 | 1.8 | 6.3 | – | – | – | – | – | – | C[C@H]1Cc2c(nnn2-c2ncc(F)cn2)CN1C(=O)c1ccc(Cl)cc1F [Example 156, (S)-(4-chloro-2-fluorophenyl)(1-(5-fluoropyrimidin-2-yl)-6-methyl-6,7-dihydro-1H-[1,2,3]triazolo[4,5-c]pyridin-5(4H)-yl)methanone]
4 | 23.0 | – | > 10000 | 9770 | – | – | – | – | Cc1cc(-n2nnc3c2CCN(C(=O)c2cccc(C(F)(F)F)c2F)C3C)ncn1 (centres unmarked) [Example 396, (2-fluoro-3-(trifluoromethyl)phenyl)(4-methyl-1-(6-methylpyrimidin-4-yl)-6,7-dihydro-1H-[1,2,3]triazolo[4,5-c]pyridin-5(4H)-yl)methanone]
5 | 0.2 | – | > 10000 | 538 | – | – | – | – | Cc1nccc(-n2nnc3c2CCN(C(=O)c2cccc(C(F)(F)F)c2Cl)C3C)n1 (centres unmarked) [Example 398, (2-chloro-3-(trifluoromethyl)phenyl)(4-methyl-1-(2-methylpyrimidin-4-yl)-6,7-dihydro-1H-[1,2,3]triazolo[4,5-c]pyridin-5(4H)-yl)methanone]
6 | 1.1 | – | > 10000 | 1720 | – | – | – | – | Cc1nccc(-n2nnc3c2CCN(C(=O)c2ccnc(C(F)(F)F)c2Cl)C3C)n1 (centres unmarked) [Example 399, (3-chloro-2-(trifluoromethyl)pyridin-4-yl)(4-methyl-1-(2-methylpyrimidin-4-yl)-6,7-dihydro-1H-[1,2,3]triazolo[4,5-c]pyridin-5(4H)-yl)methanone]
7 | 32.0 | – | > 10000 | 16900 | – | – | – | – | Cc1nccc(-n2nnc3c2CCN(C(=O)c2cccc(C(F)(F)F)c2F)C3C)n1 (centres unmarked) [Example 400, (2-fluoro-3-(trifluoromethyl)phenyl)(4-methyl-1-(2-methylpyrimidin-4-yl)-6,7-dihydro-1H-[1,2,3]triazolo[4,5-c]pyridin-5(4H)-yl)methanone]
8 | −0.2 | – | 12500 | 436 | – | – | – | – | Cc1cc(-n2nnc3c2CCN(C(=O)c2ccnc(C(F)(F)F)c2Cl)C3C)ncn1 (centres unmarked) [Example 403, (3-chloro-2-(trifluoromethyl)pyridin-4-yl)(4-methyl-1-(6-methylpyrimidin-4-yl)-6,7-dihydro-1H-[1,2,3]triazolo[4,5-c]pyridin-5(4H)-yl)methanone]
9 | – | – | – | – | −0.4 | 2300 | 1600 | – | CCn1ccc(-n2nnc3c2CCN(C(=O)c2cccc(C(F)(F)F)c2Cl)[C@H]3C)n1 [Example 405, (S)-(2-chloro-3-(trifluoromethyl)phenyl)(1-(1-ethyl-1H-pyrazol-3-yl)-4-methyl-6,7-dihydro-1H-[1,2,3]triazolo[4,5-c]pyridin-5(4H)-yl)methanone]
10 | – | – | – | – | 0.5 | 18.4 | 28.9 | – | CCn1ccc(-n2nnc3c2CCN(C(=O)c2ccnc(C(F)(F)F)c2F)[C@H]3C)n1 [Example 409, (S)-(1-(1-ethyl-1H-pyrazol-3-yl)-4-methyl-6,7-dihydro-1H-[1,2,3]triazolo[4,5-c]pyridin-5(4H)-yl)(3-fluoro-2-(trifluoromethyl)pyridin-4-yl)methanone]
11 | – | – | – | – | −12.6 | 4.1 | 28.3 | – | CC(C)n1ccc(-n2nnc3c2C[C@H](C)N(C(=O)c2cccc(C(F)(F)F)c2Cl)C3)n1 [Example 412, (S)-(2-chloro-3-(trifluoromethyl)phenyl)(1-(1-isopropyl-1H-pyrazol-3-yl)-6-methyl-6,7-dihydro-1H-[1,2,3]triazolo[4,5-c]pyridin-5(4H)-yl)methanone]
12 | – | – | – | – | 22.4 | 36600 | > 10000 | – | CC(C)n1ccc(-n2nnc3c2C[C@H](C)N(C(=O)c2cccc(C(F)(F)F)c2F)C3)n1 [Example 414, (S)-(2-fluoro-3-(trifluoromethyl)phenyl)(1-(1-isopropyl-1H-pyrazol-3-yl)-6-methyl-6,7-dihydro-1H-[1,2,3]triazolo[4,5-c]pyridin-5(4H)-yl)methanone]
13 | – | – | – | – | 1.5 | 12.9 | 146 | – | CC(C)n1ccc(-n2nnc3c2CCN(C(=O)c2cccc(C(F)(F)F)c2F)[C@H]3C)n1 [Example 415, (S)-(2-fluoro-3-(trifluoromethyl)phenyl)(1-(1-isopropyl-1H-pyrazol-3-yl)-4-methyl-6,7-dihydro-1H-[1,2,3]triazolo[4,5-c]pyridin-5(4H)-yl)methanone]
14 | – | – | – | – | 1.9 | 8.1 | 47.3 | – | CC(C)n1ccc(-n2nnc3c2C[C@H](C)N(C(=O)c2ccnc(C(F)(F)F)c2Cl)C3)n1 [Example 416, (S)-(3-chloro-2-(trifluoromethyl)pyridin-4-yl)(1-(1-isopropyl-1H-pyrazol-3-yl)-6-methyl-6,7-dihydro-1H-[1,2,3]triazolo[4,5-c]pyridin-5(4H)-yl)methanone]
15 | – | – | – | – | −0.4 | 15.7 | 92 | – | CC(C)n1ccc(-n2nnc3c2CCN(C(=O)c2ccnc(C(F)(F)F)c2F)[C@H]3C)n1 [Example 419, (S)-(3-fluoro-2-(trifluoromethyl)pyridin-4-yl)(1-(1-isopropyl-1H-pyrazol-3-yl)-4-methyl-6,7-dihydro-1H-[1,2,3]triazolo[4,5-c]pyridin-5(4H)-yl)methanone]
16 | – | – | – | – | −1.4 | > 10000 | 1030 | – | C[C@H]1c2nnn(-c3ccsc3)c2CCN1C(=O)c1cccc(C(F)(F)F)c1Cl [Example 421, (S)-(2-chloro-3-(trifluoromethyl)phenyl)(4-methyl-1-(thiophen-3-yl)-6,7-dihydro-1H-[1,2,3]triazolo[4,5-c]pyridin-5(4H)-yl)methanone]
17 | – | – | – | – | 113.2 | > 10000 | > 10000 | – | C[C@H]1Cc2c(nnn2-c2ncc(F)cn2)CN1C(=O)c1cccc(C(F)(F)F)c1O [Example 426, (S)-(1-(5-fluoropyrimidin-2-yl)-6-methyl-6,7-dihydro-1H-[1,2,3]triazolo[4,5-c]pyridin-5(4H)-yl)(2-hydroxy-3-(trifluoromethyl)phenyl)methanone]
18 | – | – | – | – | −0.8 | 8280 | 262 | – | C[C@H]1Cc2c(nnn2-c2ncc(F)cn2)CN1C(=O)c1cccc(OC(F)(F)F)c1F [Example 427, (S)-(2-fluoro-3-(trifluoromethoxy)phenyl)(1-(5-fluoropyrimidin-2-yl)-6-methyl-6,7-dihydro-1H-[1,2,3]triazolo[4,5-c]pyridin-5(4H)-yl)methanone]
19 | – | – | – | – | 1.4 | 21.2 | 16.6 | – | C[C@H]1Cc2c(nnn2-c2ncc(O)cn2)CN1C(=O)c1cccc(C(F)(F)F)c1F [Example 428, (S)-(2-fluoro-3-(trifluoromethyl)phenyl)(1-(5-hydroxypyrimidin-2-yl)-6-methyl-6,7-dihydro-1H-[1,2,3]triazolo[4,5-c]pyridin-5(4H)-yl)methanone]
20 | – | – | – | – | 0.3 | 32.8 | – | 15.8 | CC1c2n[nH]c(-c3ccccn3)c2CCN1C(=O)c1cccc(C(F)(F)F)c1Cl (centres unmarked) [Example 432, (2-chloro-3-(trifluoromethyl)phenyl)(7-methyl-3-(pyridin-2-yl)-4,5-dihydro-2H-pyrazolo[3,4-c]pyridin-6(7H)-yl)methanone]
21 | – | – | – | – | −3.6 | – | 18.9 | 15.8 | CC1c2n[nH]c(-c3cnccn3)c2CCN1C(=O)c1cccc(Cl)c1Cl (centres unmarked) [Example 433, (2,3-dichlorophenyl)(7-methyl-3-(pyrazin-2-yl)-4,5-dihydro-2H-pyrazolo[3,4-c]pyridin-6(7H)-yl)methanone]
22 | – | – | – | – | −11.3 | – | 58.6 | 100 | CC1c2n[nH]c(-c3ccc(F)cc3)c2CCN1C(=O)c1cccc(Cl)c1Cl (centres unmarked) [Example 435, (2,3-dichlorophenyl)(3-(4-fluorophenyl)-7-methyl-4,5-dihydro-2H-pyrazolo[3,4-c]pyridin-6(7H)-yl)methanone]
23 | – | – | – | – | −3.4 | > 10000 | 1130 | – | CC1c2n[nH]c(-c3ccnn3C)c2CCN1C(=O)c1cccc(Cl)c1Cl (centres unmarked) [Example 436, (2,3-dichlorophenyl)(7-methyl-3-(1-methyl-1H-pyrazol-5-yl)-4,5-dihydro-2H-pyrazolo[3,4-c]pyridin-6(7H)-yl)methanone]
